Reference: publication PMC9841527 (Journal of Medicinal Chemistry, 2022)

Columns and labels:
[1] = target: T1, CamA (Clostridioides difficile, UniProt Q183J3); experiment: Isothermal titration calorimetry; format: binding
T1 sequence (Q183J3 1-577): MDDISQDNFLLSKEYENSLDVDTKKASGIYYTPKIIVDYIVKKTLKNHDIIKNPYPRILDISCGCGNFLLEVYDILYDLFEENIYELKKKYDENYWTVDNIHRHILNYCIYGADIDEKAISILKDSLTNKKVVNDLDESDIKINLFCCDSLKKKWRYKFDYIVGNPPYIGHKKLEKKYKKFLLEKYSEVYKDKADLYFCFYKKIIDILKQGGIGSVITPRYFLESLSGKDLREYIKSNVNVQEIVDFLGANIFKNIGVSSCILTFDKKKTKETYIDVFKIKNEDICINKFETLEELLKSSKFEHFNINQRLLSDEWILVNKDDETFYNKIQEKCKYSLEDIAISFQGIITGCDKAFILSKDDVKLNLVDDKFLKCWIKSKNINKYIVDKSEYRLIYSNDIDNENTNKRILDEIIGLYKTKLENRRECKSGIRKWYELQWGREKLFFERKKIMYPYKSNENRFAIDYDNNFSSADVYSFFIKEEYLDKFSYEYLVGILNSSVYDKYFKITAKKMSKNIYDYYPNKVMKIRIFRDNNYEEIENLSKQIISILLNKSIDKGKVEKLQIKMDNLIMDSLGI

[2] = target: T1, CamA; format: biochemical
[3] = target: MettL3-MettL14 (Homo sapiens, UniProt Q86U44); experiment: Selectivity assay, MettL3-MettL14; format: biochemical; settings: [I] = 10 μM, [SAM] = 20 μM, 5 mM NaCl, or CamA conditions
[4] = target: T2, Dam (Escherichia coli, UniProt P0AEE8); format: biochemical
T2 sequence (P0AEE8 1-278): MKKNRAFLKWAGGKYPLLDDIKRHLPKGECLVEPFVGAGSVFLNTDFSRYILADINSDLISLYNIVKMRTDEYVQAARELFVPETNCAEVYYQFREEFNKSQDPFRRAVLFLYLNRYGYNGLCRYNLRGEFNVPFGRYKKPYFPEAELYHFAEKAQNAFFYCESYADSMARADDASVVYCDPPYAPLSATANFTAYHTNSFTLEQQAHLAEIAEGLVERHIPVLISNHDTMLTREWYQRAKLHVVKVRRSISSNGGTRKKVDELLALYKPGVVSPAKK

[5] = target: Dnmt3a-Dnmt3L (Mus musculus, UniProt O88508); format: biochemical
[6] = target: PCIF1 (Homo sapiens, UniProt Q9H4Z3); format: biochemical
[7] = target: CcrM (Caulobacter vibrioides, UniProt P0CAW2); format: biochemical, Caulobacter crescentus
Sequence of CcrM (P0CAW2 whole entry): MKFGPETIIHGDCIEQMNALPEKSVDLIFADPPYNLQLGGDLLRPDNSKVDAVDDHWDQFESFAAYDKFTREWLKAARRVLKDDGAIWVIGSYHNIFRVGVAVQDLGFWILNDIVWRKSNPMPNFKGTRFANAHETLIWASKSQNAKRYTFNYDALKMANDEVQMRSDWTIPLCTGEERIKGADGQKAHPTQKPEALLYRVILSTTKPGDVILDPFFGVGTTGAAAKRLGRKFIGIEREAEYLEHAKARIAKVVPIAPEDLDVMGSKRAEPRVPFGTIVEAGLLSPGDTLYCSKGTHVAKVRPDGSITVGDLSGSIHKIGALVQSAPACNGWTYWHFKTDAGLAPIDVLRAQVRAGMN

Sequence of PCIF1 (Q9H4Z3 whole entry): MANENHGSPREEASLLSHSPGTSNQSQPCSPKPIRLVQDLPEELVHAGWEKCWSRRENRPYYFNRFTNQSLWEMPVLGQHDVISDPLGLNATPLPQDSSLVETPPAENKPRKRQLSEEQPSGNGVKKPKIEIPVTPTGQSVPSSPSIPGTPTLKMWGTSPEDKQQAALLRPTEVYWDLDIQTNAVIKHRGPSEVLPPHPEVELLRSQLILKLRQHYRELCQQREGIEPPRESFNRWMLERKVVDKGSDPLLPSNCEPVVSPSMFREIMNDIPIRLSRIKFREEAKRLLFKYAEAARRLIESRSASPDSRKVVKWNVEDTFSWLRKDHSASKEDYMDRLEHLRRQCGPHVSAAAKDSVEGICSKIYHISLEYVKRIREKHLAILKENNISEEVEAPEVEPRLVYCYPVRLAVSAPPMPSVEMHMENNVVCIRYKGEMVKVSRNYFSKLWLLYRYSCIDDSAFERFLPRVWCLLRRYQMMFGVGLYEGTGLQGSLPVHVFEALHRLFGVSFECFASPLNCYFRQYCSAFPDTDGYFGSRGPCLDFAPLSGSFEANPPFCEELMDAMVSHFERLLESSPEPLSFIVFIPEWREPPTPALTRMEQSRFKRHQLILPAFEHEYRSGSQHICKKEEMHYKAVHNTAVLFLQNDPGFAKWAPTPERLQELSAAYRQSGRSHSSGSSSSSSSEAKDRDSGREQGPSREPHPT
Sequence of MettL3-MettL14 (Q86U44 whole entry): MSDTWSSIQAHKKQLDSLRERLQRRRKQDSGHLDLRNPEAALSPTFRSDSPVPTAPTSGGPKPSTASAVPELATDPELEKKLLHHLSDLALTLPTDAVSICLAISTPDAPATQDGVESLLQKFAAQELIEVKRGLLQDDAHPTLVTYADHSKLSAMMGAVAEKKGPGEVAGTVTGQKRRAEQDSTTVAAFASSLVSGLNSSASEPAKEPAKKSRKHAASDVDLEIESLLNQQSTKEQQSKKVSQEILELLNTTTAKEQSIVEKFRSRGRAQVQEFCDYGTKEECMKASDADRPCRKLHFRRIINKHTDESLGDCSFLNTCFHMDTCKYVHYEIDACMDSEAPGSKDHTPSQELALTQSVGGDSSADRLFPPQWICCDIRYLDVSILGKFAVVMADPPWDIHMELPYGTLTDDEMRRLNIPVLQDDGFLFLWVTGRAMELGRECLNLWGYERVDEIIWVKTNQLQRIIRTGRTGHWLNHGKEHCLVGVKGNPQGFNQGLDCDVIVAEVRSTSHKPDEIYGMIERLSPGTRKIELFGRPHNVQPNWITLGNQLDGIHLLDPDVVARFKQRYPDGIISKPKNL
Sequence of MettL3-MettL14 (Q9HCE5 whole entry partner): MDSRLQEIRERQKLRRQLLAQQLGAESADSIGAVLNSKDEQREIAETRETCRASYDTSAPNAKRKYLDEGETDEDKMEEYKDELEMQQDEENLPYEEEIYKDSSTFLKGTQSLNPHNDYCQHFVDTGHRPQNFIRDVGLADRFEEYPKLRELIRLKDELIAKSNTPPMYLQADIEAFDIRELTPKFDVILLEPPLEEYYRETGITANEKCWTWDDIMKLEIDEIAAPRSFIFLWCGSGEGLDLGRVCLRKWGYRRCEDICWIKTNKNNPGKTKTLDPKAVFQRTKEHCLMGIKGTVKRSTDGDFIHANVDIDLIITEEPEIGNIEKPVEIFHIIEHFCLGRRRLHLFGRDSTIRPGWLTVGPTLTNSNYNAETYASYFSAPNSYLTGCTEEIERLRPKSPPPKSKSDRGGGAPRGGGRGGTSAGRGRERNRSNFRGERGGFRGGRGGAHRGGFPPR

## 5′-methylthioadenosine [MTA, reference compound]
[1]; compared to sinefungin
  enhanced binding, fold: ~2 ×
[1]; than adenosine
  stronger binding, fold: > 7 ×

## OC[C@H]1O[C@@H](n2cnc3c(NCc4ccc(O)cc4)ncnc32)[C@H](O)[C@@H]1O [Compound 3]
[1]; compared to compound 2
  tighter binding in KD, fold: 2.6 ×
[2]
  improved IC50, fold: ~2 ×

## OC[C@H]1O[C@@H](n2cnc3c(NCCCc4ccccc4)ncnc32)[C@H](O)[C@@H]1O [Compound 14, (2R,3S,4R,5R)-2-(Hydroxymethyl)-5-(6-((3-phenylpropyl)amino)-9H-purin-9-yl)tetrahydrofuran-3,4-diol]
[1]; compared to compound 1
  lower KD value, fold: ~26 ×
[2]
  lower IC50 value, fold: ~21 ×

## Nc1ccc(CCCNc2ncnc3c2ncn3[C@@H]2O[C@H](CO)[C@@H](O)[C@H]2O)cc1 [Compound 15, (2R,3R,4S,5R)-2-(6-((3-(4-Aminophenyl)propyl)amino)-9H-purin-9-yl)-5-(hydroxymethyl)tetrahydrofuran-3,4-diol]
[1]; compared to 2 and 9
  enhanced binding, fold: 9–12 ×

## OC[C@H]1O[C@@H](n2cnc3c(NCCCCCCc4ccccc4)ncnc32)[C@H](O)[C@@H]1O [Compound 21, (2R,3S,4R,5R)-2-(Hydroxymethyl)-5-(6-((6-phenylhexyl)amino)-9H-purin-9-yl)tetrahydrofuran-3,4-diol]
[2]
  relative inhibition of CamA activity: decreased the inhibition potency

## CC(C)(C)OC(=O)NCCC1CCN(c2ncnc3c2ncn3[C@@H]2O[C@H](CO)[C@@H](O)[C@H]2O)CC1 [Compound 40, tert-Butyl-(2-(1-(9-((2R,3R,4S,5R)-3,4-dihydroxy-5-(hydroxymethyl)tetrahydrofuran-2-yl)-9H-purin-6-yl)piperidin-4-yl)ethyl)carbamate]
[2]
  CamA inhibition: loss of inhibition
  relative inhibition of CamA activity: loss of inhibition

## CC(C)(C)OC(=O)N1CCC2(CCN(c3ncnc4c3ncn4[C@@H]3O[C@H](CO)[C@@H](O)[C@H]3O)CC2)C1 [Compound 41, tert-Butyl-8-(9-((2R,3R,4S,5R)-3,4-dihydroxy-5-(hydroxymethyl)tetrahydrofuran-2-yl)-9H-purin-6-yl)-2,8-diazaspiro[4.5]decane-2-carboxylate]
[2]
  CamA inhibition: loss of inhibition
  relative inhibition of CamA activity: loss of inhibition

## OC[C@H]1O[C@@H](n2cnc3c(NCCCC4CCNCC4)ncnc32)[C@H](O)[C@@H]1O [Compound 42, (2R,3S,4R,5R)-2-(Hydroxymethyl)-5-(6-((3-(piperidin-4-yl)propyl)amino)-9H-purin-9-yl)tetrahydrofuran-3,4-diol]
[2]
  lower potency in inhibiting CamA, fold: ~10 fold

## CC(C)N(CCCNC(=O)Nc1ccc(C(C)(C)C)cc1)C[C@H]1O[C@@H](n2cc(Br)c3c(N)ncnc32)[C@H](O)[C@@H]1O [SGC0946, reference compound]
[1]; vs EPZ004777
  improved binding, fold in KD: ~3 ×
[2]
  inhibition of CamA activity: inhibits CamA activity completely
  stronger inhibition, fold in IC50: ~9 ×

## O=C(NCc1cn2cc(CNCC3CCCCC3)ccc2n1)c1cc(=O)n2ccccc2n1 [STM2457, reference compound]
[3]
  inhibition of MettL3-MettL14: inhibited
[2]
  effect on CamA activity: had no effect on CamA activity

## Nc1ncnc2c1ncn2[C@@H]1O[C@H](C[C@@H](N)CC[C@H](N)C(=O)O)[C@@H](O)[C@H]1O [sinefungin, reference compound]
[4]
  inhibition of Dam: showed measurable inhibition
[5]
  inhibition of Dnmt3a-Dnmt3L: showed measurable inhibition
[6]
  inhibition of PCIF1: showed measurable inhibition
[2]
  effect on CamA activity: inhibiting CamA
[7]
  inhibition of CcrM: showed measurable inhibition
